Columns and labels:
[1] = tested on: spleen weight, plasma osteocalcin, body weight; experiment: TPA-induced skin inflammation in mice, systemic side effects; format: in vivo, mouse; conditions: for Reduction of body weight gain, spleen weight, and plasma osteocalcin levels: indicating systemic exposure; for Osteocalcin concentration ID50 / Osteocalcin concentration Imax: plasma; for Spleen weight ID50 / Spleen weight Imax: topical; for Suppression of osteocalcin levels at efficacious doses on skin inflammation: mouse TPA model
Description: Female Balb/c mice of 7 to 8 weeks old were obtained from Charles River, Germany and acclimatized for at least 1 week. Skin inflammation was induced by repeated topical application of TPA (20 μL of 0.01% TPA in acetone; 10 μL to each side of ear) on days 1, 3, 5, 8 and 10.
(§1) Treatments were performed by topical application of either vehicle (90% acetone, 10% transcutol), Treatments were applied twice daily on days 8, 9, 10, and once on day 11 (20–10 μL to each side of ear) with at least 5 h between the first and second treatment. TPA challenge on days 8 and 10 was performed at least 1 h after the first treatment. On day 11, animals were sacrificed 2 h after the last dosing. Blood was sampled by cardiac puncture from animals anaesthetized with isoflurane. Thereafter, ear biopsies were taken with a biopsy punch (8 mm diameter), weighed and stored at – 80 °C. Plasma osteocalcin levels were analyzed by EIA (rat-MID, IDS, UK). Effective inhibitory doses (ID50) were determined from a sigmoid I(max) model in Phoenix64, Pharsight, Certara. Therapeutic Index (TI) was calculated either as ID50 for spleen weight reduction or ID50 for blood osteocalcin concentrations, divided by ID50 for ear weight reduction.

GR [2] = molecular target: T1, GR (Homo sapiens, UniProt P04150); experiment: Transactivation assay, MMTV promoter luciferase in HeLa cells; format: cell-based; set-up: endogenous in cells; host or cells: HeLa (ATCC) stably expressing MMP1- or MMTV-promoter luciferase; conditions: for EC50: 20 h, geometric mean
T1 sequence (P04150 1-777): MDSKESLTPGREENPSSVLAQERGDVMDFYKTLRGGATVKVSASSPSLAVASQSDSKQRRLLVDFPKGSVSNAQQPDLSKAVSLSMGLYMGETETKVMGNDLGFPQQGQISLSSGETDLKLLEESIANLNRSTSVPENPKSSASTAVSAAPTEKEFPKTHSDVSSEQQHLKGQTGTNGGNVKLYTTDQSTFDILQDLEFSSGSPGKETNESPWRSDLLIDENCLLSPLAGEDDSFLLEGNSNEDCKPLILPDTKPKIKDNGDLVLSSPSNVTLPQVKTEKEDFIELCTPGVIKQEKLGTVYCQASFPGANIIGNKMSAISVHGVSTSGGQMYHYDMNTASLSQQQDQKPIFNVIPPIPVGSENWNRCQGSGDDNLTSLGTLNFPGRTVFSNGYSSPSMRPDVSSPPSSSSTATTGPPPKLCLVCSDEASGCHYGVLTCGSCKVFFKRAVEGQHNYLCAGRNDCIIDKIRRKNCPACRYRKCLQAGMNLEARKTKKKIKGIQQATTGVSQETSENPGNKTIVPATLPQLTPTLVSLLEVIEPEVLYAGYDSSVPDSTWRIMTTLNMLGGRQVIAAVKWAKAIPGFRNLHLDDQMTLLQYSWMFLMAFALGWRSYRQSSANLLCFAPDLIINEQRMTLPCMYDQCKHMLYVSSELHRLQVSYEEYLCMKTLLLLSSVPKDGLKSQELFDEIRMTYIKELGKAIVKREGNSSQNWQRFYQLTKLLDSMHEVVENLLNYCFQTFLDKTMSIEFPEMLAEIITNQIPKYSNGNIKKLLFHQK
Description: A HeLa cell line stably expressing luciferase under the control of the mouse mammary tumour virus (MMTV) promoter was generated. When the GR is activated by addition of a GR agonist, it forms a homodimer and binds to the MMTV promoter, t inducing transcription of the luciferase reporter gene. Briefly, cells were incubated with test compounds in culture medium containing charcoal-filtered fetal bovine serum for 20 h 37 °C 5% CO2. Finally, luciferase activity was detected luminometrically after addition of specific substrate to the cells.
(§2) IC50 of test compounds was determined by 10-point titrations in duplicates. IC50 values and other parameters were calculated by sigmoidal curve fitting in Assay Explorer.

GR [3] = molecular target: T1, GR; experiment: Transrepression assay, PMA-induced MMP1 promoter luciferase in HeLa cells; format: cell-based; set-up: endogenous in cells; host or cells: HeLa (ATCC) stably expressing MMP1- or MMTV-promoter luciferase; conditions: for EC50: 18 h, geometric mean
Description: Assays were adopted from a method reported by Schäcke et al.[39] and HeLa cells were obtained from the American Type Culture Collection (ATCC). Transrepression assay: A HeLa cell line stably expressing luciferase under the control of the human Matrix Metallopeptidase 1 (MMP1) promoter was generated. Upon binding to the GR, […], preventing it from binding the MMP1 promoter, resulting in inhibition of luciferase transcription and activity. Briefly, cells were incubated in culture medium containing charcoal-filtered fetal bovine serum with 5 nM PMA (phorbol 12-myristate 13-acetate) for 18 h with or without test compounds. Then, luciferase activity was detected luminometrically after addition of specific substrate to the cells.
as §2

[4] = tested on: FKBP5 mRNA (GR target engagement); experiment: Minipig skin FKBP5 gene expression after 4 weeks topical treatment; format: in vivo; conditions: minipigs, LEO 134310 2%, CP 0.05%, BMV 0.1%
Description: Each animal was treated for 6 h daily over 28 days with 25 µL of the following topical formulations on an application area of 2.5 cm × 2.5 cm: Vehicle (transcutol:acetone (1:9) with 10% hydroxy-propyl-cellulose); Dermovate cream (CP 0.05%), CP 0.05% in vehicle; Betnovate cream (BMV 0.1%); BMV 0.1% in vehicle; LEO 134310 2% in vehicle. One test field on each animal remained untreated.
RNA was extracted from the biopsies and qPCR was performed using customized TaqMan gene expression assays for FKBP5 and TBP (reference gene).

[5] = tested on: TPA-induced skin inflammation; experiment: TPA study in mice, CP applied on the non-inflamed ear; format: in vivo, mouse; conditions: CP applied topically on the non-inflamed ear, tested dose range 0.03–3 µg/ear
Description: Figure S6. Effect of topically applied CP on TPA induced ear biopsy weight in mice (upper panel). Treatment scheme can be seen in the lower panel. Ear oedema was induced by TPA on the left ear on day 1, 3, 5, 8 and 10 and CP was topically administered daily on either left or right ear on day 8 to 11. The left ear biopsy weight was measured on day 11. Significant effect was seen also when CP was administered on the right ear at the 2 highest doses, indicating contribution to the local effect, by systemic exposure

[6] = TPA mouse model, blood concentration after topical dose; format: in vivo; conditions: blood concentrations at 2 h after the last topical dose
Description: as §1

[7] = TPA mouse model, CV (%) in brackets

Row | SMILES | Therapeutic index (Osteocalcin ID50/Ear ID50) ([1]; TPA mouse model) | Therapeutic index (Spleen ID50/Ear ID50) ([1]; TPA mouse model) | Reduction of body weight gain, spleen weight, and plasma osteocalcin levels ([1]; TPA mouse model) | Osteocalcin concentration ID50 [1, 7] | Osteocalcin concentration Imax [1, 7] | Spleen weight ID50 [1, 7] | Spleen weight Imax [1, 7] | Suppression of osteocalcin levels at efficacious doses on skin inflammation [1] | Emax (GR [2]; MMTV promoter, HeLa cells) [%] | EC50 (GR [2]; MMTV promoter, HeLa cells) [nM] | Emax (GR [3]) [%] | EC50 (GR [3]) [nM] | other results
1 | CCCCC(=O)O[C@]1(C(=O)CO)[C@@H](C)C[C@H]2[C@@H]3CCC4=CC(=O)C=C[C@]4(C)[C@@]3(F)[C@@H](O)C[C@@]21C [BMV, Betamethasone Valerate] | 39 | 21 | dose-dependent reduction | 200 (24) µg/mL | 74 (10) % | 110 (25) µg/mL | 58 (9) % | did | 120 | 2.6 | 78 | 0.57 | 
2 | CCC(=O)O[C@]1(C(=O)CCl)[C@@H](C)C[C@H]2[C@@H]3CCC4=CC(=O)C=C[C@]4(C)[C@@]3(F)[C@@H](O)C[C@@]21C [CP, Clobetasol Propionate] | 43 | 17 | dose-dependent reduction | 64 (17) µg/mL | 88 (4) % | 26 (27) µg/mL | 70 (8) % | did | 110 | 0.25 | 90 | 0.064 | FKBP5 gene expression induced in skin [4]: higher levels of FKBP5 gene expression; Dose from which significant anti-inflammatory effect due to systemic exposure was seen [5]: ≥ 1 µg/ear
3 | C[C@H](NC(=O)[C@H]1CCCO1)[C@H](Oc1ccc(C(=O)O[C@H]2CCCN(C(=O)[C@H]3COC(=O)C3)C2)cc1)c1ccc(C2CC2)cc1 [LEO 134310] | > 200 | 49 | not—or only to a lesser extent |  |  |  | 42 (56) % | did not suppress osteocalcin levels |  | 410 |  | 1.2 | Higher therapeutic index (osteocalcin ID50 to ear weight ID50) compared to CP and BMV ([1]; TPA mouse model): > 5 fold; Higher therapeutic index (spleen weight ID50 to ear weight ID50) compared to CP and BMV ([1]; TPA mouse model): 2 fold; Spleen weight ID50 (extrapolated) ([1]; TPA mouse model, ID50 could not be determined, value extrapolated, CV (%) in brackets): 25,000 (110) µg/mL; Higher dose needed to achieve systemic exposure comparable to BMV [6]: 800 fold; Higher dose needed to achieve systemic exposure comparable to CP [6]: 200 fold; Transactivation Emax (GR [2]; MMTV promoter, HeLa cells): 95%; Transactivation EC50 relative to concentration needed for transrepression (GR [2]; higher concentration than needed for transrepression): more than 300 fold; Transrepression Emax (GR [3]): 100%

— article PMC8795149, “Characterization of a novel non-steroidal glucocorticoid receptor agonist optimized for topical treatment” (Scientific Reports, 2022)
